# Data: patent publication US9840478B2 (MERCK SHARP & DOHME CORP., priority 2013, dated 2017)
# System: HIV-1 (H9IIIB strain)
# Assay: Cell-based HIV infection assay using a reporter (Cell-Based), MT4-GFP cells
# Details: Human immunodeficiency virus 1, MT4-GFP cells infected with HIV-1 H9IIIB; 50% normal human serum; mean of at least two independent experiments; read-out: Cell-based IP
# Experimental: Cell-Based HIV Infection Assay Using a Reporter (“Cell-Based”):
# MT4-GFP cells contain a stably integrated HIV long terminal repeat promoter directing the transcription of green fluorescent protein (GFP). When HIV infects the cell, GFP is produced and the cell becomes green. MT4-GFP cells (250,000 cells/ml) were bulk-infected with HIV-1 (H9IIIB strain) at low multiplicity of infection (MOI) in RPMI media, supplemented with 10% FBS for 24 hours. Cells were then washed once in RPMI plus 10% FBS and resuspended in RPMI plus 50% normal human serum (NHS). Test compounds were serial-diluted in DMSO using an ECHO liquid dispenser. A control well included a combination of three HIV drugs (an inhibitor of HIV protease, integrase strand transfer and a non-nucleoside reverse transcriptase inhibitor; triple drug). The infected MT4-GFP cells were added to a 384-well poly-D-lysine coated black plate with clear bottom in which the diluted test compounds were placed. The cells were seeded in the plate at 8,000 cells per well and the final DMSO concentration was 0.4%. Infected cells were quantified at both 24 and 48 hours post incubation using an Acumen eX3 plate reader. Viral reproductive ratio (R0) was determined using the number of infected cells at 48 hours divided by the number of infected cells at 24 hours. Percent viral growth inhibition was calculated by [1−(R−Rtripledrug)/(RDMSO−Rtripledrug)]*100. Compound potency IP or IC50 was determined with use of a 4-parameter dose response curve analysis.
row,SMILES,IC50
1,"O=C(C[C@@H](c1ccc(F)cc1)c1cc(F)cc(F)c1)Nc1cncc(F)c1CC[C@H]1CNCCN1C(=O)N1CCCCC1 [Example 341, (3S)-3-(3,5-difluorophenyl)-3-(4-fluorophenyl)-N-(5-fluoro-4-{2-[(2S)-1-(piperidin-1-ylcarbonyl)piperazin-2-yl]ethyl}pyridin-3-yl)propanamide]",450 nM
2,"O=C(C[C@@H](c1ccc(F)cc1)c1cc(F)cc(F)c1)Nc1cncc(F)c1CC[C@H]1CNCCN1C(=O)CCOc1ccccc1 [Example 348, (3S)-3-(3,5-difluorophenyl)-N-(5-fluoro-4-{2-[(2S)-1-(3-phenoxypropanoyl)piper-azin-2-yl]ethyl}pyridin-3-yl)-3-(4-fluorophenyl)propanamide]",190 nM
3,"N[C@H](C(=O)Nc1cncc(F)c1CC[C@H]1CNCCN1S(=O)(=O)C1CC1)[C@@H](c1ccc(F)cc1)c1cc(F)cc(F)c1 [Example 33, (βS)-N-(4-{2-[(2S)-1-(cyclopropylsulfonyl)piperazin-2-yl]ethyl}-5-fluoropyridin-3-yl)-3,5-difluoro-β-(4-fluorophenyl)-L-phenylalaninamide]",25 nM
4,"COC(=O)N[C@H](C(=O)Nc1cccc(F)c1CC[C@H]1CNC[C@H](C)N1S(=O)(=O)c1ccccc1)C1(c2ccc(F)c(F)c2)CCOCC1 [Example 297, methyl {(1S)-1-[4-(3,4-difluorophenyl)tetrahydro-2H-pyran-4-yl]-2-[(3-fluoro-2-{2-[(2S,6S)-6-methyl-1-(phenylsulfonyl)piperazin-2-yl]ethyl}phenyl)amino]-2-oxoethyl}carbamate]",16 nM
5,"CC(C)[C@H](c1cccc(Cl)c1)[C@H](N)C(=O)Nc1cccc(F)c1CC[C@H]1CNC[C@H](C)N1S(=O)(=O)c1ccccc1 [Example 207, (βR)-3-chloro-N-(3-fluoro-2-{2-[(2S,6S)-6-methyl-1-(phenylsulfonyl)piperazin-2-yl]ethyl}phenyl)-β-(1-methylethyl)-L-phenylalaninamide]",760 nM
6,"C[C@H]1CNC[C@H](CCc2c(F)cncc2NC(=O)[C@@H](N)[C@@H](c2ccc(F)cc2)c2cc(F)cc(F)c2)N1S(=O)(=O)C1CC1 [Example 197, (BS)-N-(4-{2-[(2S,6S)-1-(cyclopropylsulfonyl)-6-methylpiperazin-2-yl]ethyl}-5-fluoropyridin-3-yl)-β-(3,5-difluorophenyl)-4-fluoro-L-phenylalaninamide]",18 nM
7,"COC(=O)N[C@H](C(=O)Nc1cccc(F)c1CC[C@H]1CNCCN1S(=O)(=O)c1ccccc1)[C@H](CCC1CCOCC1)c1ccc(Cl)c(F)c1 [Example 73, (βR)-4-chloro-3-fluoro-N-(3-fluoro-2-{2-[(2S)-1-(phenylsulfonyl)piperazin-2-yl]ethyl}phenyl)-Nα-(methoxycarbonyl)-β-[2-(tetrahydro-2H-pyran-4-yl)ethyl]-L-phenylalaninamide]",7.6 nM
8,"C[C@@H]1CNC[C@H](CCc2c(F)cccc2NC(=O)[C@@H](N)[C@H](c2cncc(F)c2)c2cccc(Cl)c2)N1S(=O)(=O)c1ccccc1 [Example 261, (βS)-3-chloro-N-(3-fluoro-2-{2-[(2S,6R)-6-methyl-1-(phenylsulfonyl)piperazin-2-yl]ethyl}phenyl)-β-(5-fluoropyridin-3-yl)-L-phenylalaninamide]",70 nM
9,"C[C@H]1CNC[C@H](CCc2c(F)cncc2NC(=O)[C@@H](N)[C@@H](c2ccc(F)cc2)c2cc(F)cc(F)c2)N1S(=O)(=O)c1ccc(OC(F)(F)F)cc1 [Example 243, (βS)-β-(3,5-difluorophenyl)-4-fluoro-N-(5-fluoro-4-{2-[(2S,6S)-6-methyl-1-{[4-(trifluoromethoxy)phenyl]sulfonyl}piperazin-2-yl]ethyl}pyridin-3-yl)-L-phenylalaninamide]",17 nM
10,"COC(=O)N[C@H](C(=O)Nc1cccc(F)c1CC[C@H]1CNCC(COC(C)C)N1S(C)(=O)=O)[C@H](c1cccc(F)c1)c1cccc(Cl)c1 (stereo partly drawn) [Example 222, (βR)-β-(3-chlorophenyl)-3-fluoro-N-(3-fluoro-2-{2-[(2S)-6-[(1-methylethoxy)methyl]-1-(methylsulfonyl)piperazin-2-yl]ethyl}phenyl)-Nα-(methoxycarbonyl)-L-phenylalaninamide]",76 nM
11,"COC(=O)N[C@H](C(=O)Nc1cccc(F)c1CC[C@H]1CNC[C@H](C)N1S(C)(=O)=O)[C@@H](c1ccc(Cl)cc1)C(C)C [Example 123, (βR)-4-chloro-N-(3-fluoro-2-{2-[(2S,6S)-6-methyl-1-(methylsulfonyl)piperazin-2-yl]ethyl}phenyl)-Nα-(methoxycarbonyl)-β-(1-methylethyl)-L-phenylalaninamide]",62 nM
12,"COC(=O)N[C@H](C(=O)Nc1cccc(F)c1CC[C@H]1CNC[C@H](C)N1S(=O)(=O)C1CC1)[C@@H](c1ccc(Cl)cc1)c1cccc(F)c1 [Example 168, (βS)-4-chloro-N-(2-{2-[(2S,6S)-1-(cyclopropylsulfonyl)-6-methylpiperazin-2-yl]ethyl}-3-fluorophenyl)-β-(3-fluorophenyl)-Nα-(methoxycarbonyl)-L-phenylalaninamide]",19 nM
13,"O=C(Nc1cccc(F)c1CC[C@H]1CNCCN1S(=O)(=O)c1ccccc1)[C@H](O)C(c1ccccc1)c1ccccc1 (single isomer, unassigned) [Example 365]",68 nM
14,"Nc1ccc(S(=O)(=O)N2CCNC[C@@H]2CCc2c(F)cncc2NC(=O)[C@@H](N)[C@@H](c2ccc(F)cc2)c2cc(F)cc(F)c2)cn1 [Example 29, (βS)-N-[4-(2-{(2S)-1[(6-aminopyridin-3-yl)sulfonyl]piperazin-2-yl}ethyl)-5-fluoropyridin-3-yl]-3,5-difluoro-β-(4-fluorophenyl)-L-phenylalaninamide]",520 nM
15,"COC(=O)N[C@H](C(=O)Nc1cccc(F)c1CC[C@H]1CNC[C@H](C)N1S(=O)(=O)c1ccccc1)[C@@H](c1cc(F)cc(F)c1)C1CCOCC1 [Example 296, (βR)-3,5-difluoro-N-(3-fluoro-2-{2-[(2S,6S)-6-methyl-1-(phenylsulfonyl)piperazin-2-yl]ethyl}phenyl)-Nα-(methoxycarbonyl)-β-(tetrahydro-2H-pyran-4-yl)-L-phenylalaninamide]",9.9 nM
16,"CC(C)[C@H](c1ccc(Cl)cc1)[C@H](N)C(=O)Nc1cccc(F)c1CC[C@H]1CNC[C@H](C)N1S(=O)(=O)C1CC1 [Example 127, (βR)-4-chloro-N-(2-{2-[(2S,6S)-1-(cyclopropylsulfonyl)-6-methylpiperazin-2-yl]ethyl}-3-fluorophenyl)-β-(1-methylethyl)-L-phenylalaninamide]",300 nM
17,"COC(=O)N[C@H](C(=O)Nc1cccc(F)c1CC[C@H]1CNC[C@H](C)N1S(=O)(=O)c1ccc(OC(F)(F)F)cc1)[C@@H](Cc1ccc(F)cc1)c1ccc(Cl)cc1 [Example 221, (βS)-4-chloro-β-(4-fluorobenzyl)-N-(3-fluoro-2-{2-[(2S,6S)-6-methyl-1-{[4-(trifluoromethoxy)phenyl]sulfonyl}piperazin-2-yl]ethyl}phenyl)-Nα-(methoxycarbonyl)-L-phenylalaninamide]",230 nM
18,"C[C@H]1CN(S(=O)(=O)c2ccccc2)[C@@H](CCc2c(F)cccc2NC(=O)CC(c2ccc(F)cc2)c2ccc(F)cc2)CN1 [Example 89, N-(3-fluoro-2-{2-[(2S,5S)-5-methyl-1-(phenylsulfonyl)piperazin-2-yl]ethyl}phenyl)-3,3-bis(4-fluorophenyl) propanamide]",700 nM
19,"C[C@@H]1CNC[C@H](CCc2c(F)cccc2NC(=O)[C@@H](N)[C@@H](c2ccc(F)cc2)c2cc(F)cc(F)c2)N1S(=O)(=O)C1CC1 [Example 192, (βS)-N-(2-{2-[(2S,6R)-1-(cyclopropylsulfonyl)-6-methylpiperazin-2-yl]ethyl}-3-fluorophenyl)-β-(3,5-difluorophenyl)-4-fluoro-L-phenylalaninamide]",36 nM
20,"CC[C@@H]1CNC[C@H](CCc2c(F)cccc2NC(=O)[C@@H](N)[C@@H](c2ccc(Cl)cc2)C2CCOCC2)N1S(C)(=O)=O [Example 265, (βR)-4-chloro-N-(2-{2-[(2S,6R)-6-ethyl-1-(methylsulfonyl)piperazin-2-yl]ethyl}-3-fluorophenyl)-β-(tetrahydro-2H-pyran-4-yl)-L-phenylalaninamide]",260 nM
21,"O=C1COc2ccc(S(=O)(=O)N3CCNC[C@@H]3CCc3c(F)cncc3NC(=O)C[C@@H](c3ccc(F)cc3)c3cc(F)cc(F)c3)cc2N1 [Example 308, (3S)-3-(3,5-difluorophenyl)-N-[5-fluoro-4-(2-{(2S)-1-[(3-oxo-3,4-dihydro-2H-1,4-benzoxazin-6-yl)sulfonyl]piperazin-2-yl}ethyl)pyridin-3-yl]-3-(4-fluorophenyl)propanamide]",180 nM
22,"O=C(C[C@@H](c1ccc(F)cc1)c1cc(F)cc(F)c1)Nc1cncc(F)c1CC[C@H]1CNCCN1S(=O)(=O)N1CC[C@@H](F)C1 [Example 327, (3S)-3-(3,5-difluorophenyl)-N-(5-fluoro-4-{2-[(2)S-1-{[(3R)-3-fluoropyrrolidin-1-yl]sulfonyl}piperazin-2-yl]ethyl}pyridin-3-yl)-3-(4-fluorophenyl)propanamide]",9.4 nM
